Experimental findings from US20160052898A1, “NOVEL COMPOUNDS” (BAYER PHARMA AKTIENGESELLSCHAFT, priority 2013, published 2016) are described below.

pIC50: −log10 of the molar value. Like-named read-outs stand apart in the source and are kept apart here.

The test system of assay [1] is HCT116 FOP control reporter cell line. Nature of the assay: HCT116 FOP control vector reporter assay (non-functional TCF elements). In kind it is cell-based. The note with it: HCT116 FOP control reporter cells, luciferase expression, 36 hours incubation, 50 μM to 15 nM, read-out: HCT116 FOPFlash IC50. In a few lines:
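Stable HCT116 line carrying the non-functional FOP luciferase construct, 10000 cells/well plated 24 hrs before. Compounds 50 μM to 15 nM (3.16-fold steps) in CAFTY buffer pH 7.4 with 2 mM Ca2+, 36 hours at 37° C; luciferase luminescence read.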

The subject of assay [2] is constitutive active colorectal cancer cell (CRC) Wnt pathway. Briefly: HCT116 Super TopFlash cellular reporter assay (constitutive active Wnt pathway). In kind it is cell-based. The note with it: HCT116 TOP reporter cells, luciferase expression, 36 hours incubation, 50 μM to 15 nM. In outline:
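Luciferase luminescence served as the Wnt read-out after 36 h of compound treatment at 37 °C. Compound came from a pre-dilution series (50 μM down to 15 nM, 3.16-fold steps) in CAFTY buffer. Cells were stable HCT116 TOP reporter cells, with matched FOP-vector control cells tested in parallel, seeded a day earlier.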

As to `CC(C(=O)Nc1cc(NC(=O)c2ccc(-c3ccccc3)cc2)ccc1C(F)(F)F)N1CC2CCC(C1)O2` (stereo not drawn) [Example 197, N-[3-{[(2S*)-2-(8-oxa-3-azabicydo[3.2.1]oct-3-yl)propanoyl]amino}-4-(trifluoromethyl)phenyl) biphenyl-4-carboxamide], the pIC50 in assay [1] was at most 4.30; in assay [2], 5.83.
For the compound `COc1ccc(NC(=O)c2ccc(-c3ccccc3)cc2)cc1NC(=O)C1(N2CCOCC2)CC1` [Example 150, N-[4-methoxy-3-({[1-(morpholin-4-yl)cyclopropyl]carbonyl}amino)phenyl]biphenyl-4-carboxamide], the pIC50 was at most 4.30 in assay [1] (Homo sapiens, HCT-116, 36 h) and 7.58 in assay [2] (Homo sapiens, HCT-116, 36 h).
Taken in the same sequence, the figures for `COc1ccc(NC(=O)c2ccc(-c3ccccc3)cc2)cc1NC(=O)CN1CCO[C@@H](CO)C1` [Example 34, N-[3-({[(2R)-2-(hydroxymethyl)morpholin-4-yl]acetyl}amino)-4-methoxyphenyl]biphenyl-4-carboxamide] were at most 4.30 and 5.97.
On the same counts, the results for `C[S+]([O-])c1ccc(C(=O)Nc2ccc(-c3ccccc3)cc2)cc1NC(=O)CN1CCOCC1` (stereo not drawn) [Example 110, N-(biphenyl-4-yl)-4-(methylsulfinyl)-3-[(morpholin-4-ylacetyl)amino]benzamide] are 5.19 and 6.44.
Take `COc1ccc(NC(=O)c2ccc(-c3ccccc3)cc2)cc1NC(=O)CC1CCCCC1` [Example 145, N-{3-((cyclohexylacetyl)amino]-4-methoxyphenyl}biphenyl-4-carboxamide]: the pIC50 in assay [1] (Homo sapiens, HCT-116, 36 h) is at most 4.30; in assay [2] (Homo sapiens, HCT-116, 36 h), 5.32.
Taken in the same sequence, the figures for `COc1ccc(C(=O)Nc2ccc(-c3ccccc3)cc2)cc1NC(=O)CN1C[C@H]2C[C@@H]1CO2` [Example 201, N-(biphenyl-4-yl)-4-methoxy-3-{[(1R,4R)-2-oxa-5-azabicyclo[2.2.1]hept-5-ylacetyl)amino}benzamide] were at most 4.30 and 5.72.
Turning to `COCCCOCc1ccc(C(=O)Nc2ccc(-c3ccccc3)cc2)cc1NC(=O)C(C)N1CCOCC1` (single isomer, unassigned) [Example 179, N-(biphenyl-4-yl)-4-[(3-methoxypropoxy)methyl]-3-{[(2S*)-2-(morpholin-4-yl)propanoyl]amino} benzamide], the values for the pIC50 in assay [1] and in assay [2] were 5.12 and 6.52, respectively.
As for `COc1ccc(NC(=O)c2ccc(-c3ccccc3)cc2)cc1NC(=O)CCN1CCOCC1` [Example 141, N-(4-methoxy-3-{[3-(morpholin-4-yl)propanoyl]amino}phenyl) biphenyl-4-carboxamide], the pIC50 is at most 4.30 in assay [1] (Homo sapiens, HCT-116, 36 h) and 5.60 in assay [2] (Homo sapiens, HCT-116, 36 h).
On to `COCc1ccc(C(=O)Nc2ccc(-c3ccccc3)cc2)cc1NC(=O)CN1CC2CCC(C1)O2` [Example 154, N-(biphenyl-4-yl)-4-(methoxymethyl)-3-[(8-oxa-3-azabicyclo[3.2.1]oct-3-ylacetyl)amino]benzamide], for which the pIC50 is 4.37 in assay [1] (Homo sapiens, HCT-116, 36 h) and 7.32 in assay [2] (Homo sapiens, HCT-116, 36 h).
In the case of `COc1ccc(NC(=O)c2ccc(-c3cccc(C(F)(F)F)c3)cc2)cc1NC(=O)CN1CCOCC1` [Example 78, N-{4-methoxy-3-[(morpholin-4-ylacetyl)amino]phenyl}-3′-(trifluoromethyl)biphenyl-4-carboxamide], the pIC50 in assay [1] (Homo sapiens, HCT-116, 36 h) is at most 4.30; in assay [2] (Homo sapiens, HCT-116, 36 h), 5.54.
Taken in the same sequence, the figures for `COc1ccc(NC(=O)c2ccc(-c3ccccc3)cc2)cc1NC(=O)CN1CCN(S(C)(=O)=O)CC1` [Example 51, N-[4-methoxy-3-({[4-(methylsulfonyl)piperazin-1-yl]acetyl}amino)phenyl]biphenyl-4-carboxamide] were at most 4.30 and 5.50.
On the same counts, the results for `O=C(Cn1cccn1)Nc1cc(C(=O)Nc2ccc(-c3ccccc3)cc2)ccc1C(F)(F)F` [Example 3, N-(biphenyl-4-yl)-3-[(1H-pyrazol-1-ylacetyl)amino]-4-(trifluoromethyl)benzamide] are at most 4.30 and 6.37.
`COCCCOc1ccc(C(=O)Nc2ccc(-c3ccccc3)cc2)cc1NC(=O)CN1CCOCC1` [Example 91, N-(biphenyl-4-yl)-4-(3-methoxypropoxy)-3-[(morpholin-4-ylacetyl)amino]benzamide]: the pIC50 was at most 4.30 in assay [1] (Homo sapiens, HCT-116, 36 h) and 6.58 in assay [2] (Homo sapiens, HCT-116, 36 h).
Taken in the same sequence, the figures for `COc1ccc(NC(=O)c2ccc(-c3ccccc3)cc2)cc1NC(=O)CN1CCC2(CCO2)C1` (stereo not drawn) [Example 46, N-{4-methoxy-3-[(1-oxa-6-azaspiro[3.4]oct-6-ylacetyl)amino]phenyl}biphenyl-4-carboxamide] were at most 4.30 and 5.46.
On to `COCCOCc1ccc(C(=O)Nc2ccc(-c3ccccc3)cc2)cc1NC(=O)C(C)N1CCOCC1` (single isomer, unassigned) [Example 162, N-(biphenyl-4-yl)-4-[(2-methoxyethoxy)methyl]-3-{[(2R*)-2-(morpholin-4-yl)propanoyl)amino} benzamide], for which the pIC50 in assay [1] (Homo sapiens, HCT-116, 36 h) was 4.98; in assay [2] (Homo sapiens, HCT-116, 36 h) it was 6.99.
Taken in the same sequence, the figures for `COc1ccc(NC(=O)c2ccc(-c3cc(F)cc(F)c3)cc2F)cc1NC(=O)CN1CCOCC1` [Example 196, 3,3′,5′-trifluoro-N-{4-methoxy-3-[(morpholin-4-ylacetyl)amino]phenyl} biphenyl-4-carboxamide] were 4.89 and 5.93.
Consider `C[C@H](C(=O)Nc1cc(NC(=O)c2ccc(-c3ccccc3)cc2)ccc1OC(F)(F)F)N1CCOCC1` [Example 63, N-[3-{[(2R)-2-(morpholin-4-yl)propanoyl]amino}-4-(trifluoromethoxy)phenyl]biphenyl-4-carboxamide], for which the pIC50 was at most 4.30 in assay [1] (Homo sapiens, HCT-116, 36 h) and 6.58 in assay [2] (Homo sapiens, HCT-116, 36 h).
`COc1ccc(NC(=O)c2ccc(-c3ccccc3)cc2)cc1NC(=O)CN1C[C@H]2C[C@@H]1CO2` [Example 205, N-(4-methoxy-3-{[(1R,4R)-2-oxa-5-azabicyclo[2.2.1]hept-5-ylacetyl]amino}phenyl) biphenyl-4-carboxamide]: the pIC50 was at most 4.30 in assay [1] (Homo sapiens, HCT-116, 36 h) and 5.61 in assay [2] (Homo sapiens, HCT-116, 36 h).
Taken in the same sequence, the figures for `CN(C)C1(C(=O)Nc2cc(NC(=O)c3ccc(-c4ccccc4)cc3)ccc2OC(F)(F)F)CC1` [Example 188, N-[3-({[1-(dimethylamino)cyclopropyl]carbonyl}amino)-4-(trifluoromethoxy)phenyl] biphenyl-4-carboxamide] were 4.48 and 6.34.
On the same counts, the results for `O=C(Nc1ccc(-c2ccccc2)cc1)c1ccc(F)c(NC(=O)C2(N3CCOCC3)CC2)c1` [Example 151, N-(biphenyl-4-yl)-4-fluoro-3-({[1-(morpholin-4-yl)cyclopropyl]carbonyl}amino)benzamide] are at most 4.30 and 7.55.
Take `COCc1ccc(C(=O)Nc2ccc(-c3ccccc3)cc2)cc1NC(=O)C1(N2CCN(C3CC3)CC2)CC1` [Example 149, N-(biphenyl-4-yl)-3-({[1-(4-cyclopropylpiperazin-1-yl)cyclopropyl]carbonyl}amino)-4-(methoxymethyl)benzamide]: the pIC50 in assay [1] (Homo sapiens, HCT-116, 36 h) is 4.82; in assay [2] (Homo sapiens, HCT-116, 36 h), 7.88.
Turning to `COCc1ccc(C(=O)Nc2ccc(-c3ccccc3)cc2)cc1NC(=O)Cn1cccn1` [Example 187, N-(biphenyl-4-yl)-4-(methoxymethyl)-3-[(1H-pyrazol-1-ylacetyl)amino]benzamide], the pIC50 in assay [1] (Homo sapiens, HCT-116, 36 h) is at most 4.30; in assay [2] (Homo sapiens, HCT-116, 36 h) it was 6.37.
Taken in the same sequence, the figures for `C[C@H](C(=O)Nc1cc(NC(=O)c2ccc(-c3ccccc3)cc2)ccc1F)N1CCOCC1` [Example 31, N-(4-fluoro-3-{[(2R)-2-(morpholin-4-yl)propanoyl]amino}phenyl)biphenyl-4-carboxamide] were at most 4.30 and 5.42.
On the same counts, the results for `COc1ccc(C(=O)Nc2ccc(-c3ccccc3)cc2)cc1NC(=O)[C@@H](C(C)C)N1CCOCC1` [Example 137, N-(biphenyl-4-yl)-4-methoxy-3-{[(2R)-3-methyl-2-(morpholin-4-yl)butanoyl]amino} benzamide] are 4.48 and 6.03.
